`O=C(/C=C/c1ccc(CN2CCCC2)cc1)Nc1ccc(Br)cc1` showed a melting point of 184 to 186 °C. Turning to `O=C1C(c2cccc(Br)c2)n2cncc2CN1Cc1ccsc1` (stereo not drawn), the melting point lay in the range of 43 to 45 °C. In the case of `COC(=O)[C@@H](Cc1ccccc1)Nc1cc(-c2ccc(OCc3ccccc3)cc2)ncn1`, the melting point was 150 °C. In turn, `CCC(=O)Oc1cc(OC)cc(OC)c1C(=O)C=Cc1ccc2c(c1)OCO2` registered a melting point of 134 °C. The compound `CC(C)C(=O)Nc1nc(Cl)c([N+](=O)[O-])c(Cl)n1` returned a melting point of 166 to 169 °C. To `CCCCCCCCCCCCC(=O)CC(O)Cc1ccccc1` (stereo not drawn) belongs 40 to 43 °C.

`O=C(Cl)c1c(Cl)c(Cl)c(C(F)(F)F)c(Cl)c1Cl` came in with a melting point of 72 to 76 °C. On to `CCOC(=O)Cc1ccc(N[C@@H](CCC(N)=O)C(=O)O)cc1`, for which the melting point was found to be 180 °C. In the case of `CNc1nc(Nc2ccc(Cl)c(CNS(C)(=O)=O)c2)ncc1[N+](=O)[O-]`, the melting point came to 250 °C. To `CCOCCNCCOc1ccc(NC(=O)c2ccccc2NS(C)(=O)=O)cc1` belongs 171 to 172 °C; to `CC1Cc2cc(Br)cc(S(N)(=O)=O)c2O1` (stereo not drawn), 167 to 169 °C; to `Cc1csc(CNC(=O)c2sc(N3CCN(CC4CC4(F)F)C3=O)nc2C)n1` (stereo not drawn), 157 to 159 °C. In the case of `CC(C)(C)OC(=O)C1=Cc2cc(OCc3ccccc3)ccc2OC1`, the melting point was 64 to 67 °C.

`COc1ccc2cccc(CC(=O)O)c2c1` yielded a melting point of 154 to 156 °C. On to `Cc1cc2c(c3c1C(c1ccc(C(C)C)cc1)CO3)CCCC2` (stereo not drawn), for which the melting point lay within 54 to 55 °C.

On to `O=C(N[C@@H](Cc1ccc2ccccc2c1)[C@H](O)CCl)OCc1ccccc1`, for which the melting point is 173 to 174 °C. `COc1ccc2c3c(c(=O)oc2c1)CN(Cc1ccnc2ccccc12)CC3` had a melting point of 186 to 188 °C. `CCc1cc(C=O)ccc1N=C1SCC2(CCCC2)N1C1CCCC1` gave a melting point of 104 to 105 °C.

`COc1cc(C(=O)Nc2c(Cl)cncc2Cl)cc2c1oc1ccccc12`: the melting point fell in the range of 165 to 166 °C.

For `CCOC(=O)C(C)(OC)C(=O)Nc1cc(Cl)cc(Cl)c1` (stereo not drawn), the melting point lay in the range of 72 to 75 °C. `N#Cc1c(Br)c(C(F)(F)F)n(COC(=O)C2CC2)c1-c1ccc(Cl)cc1` displayed a melting point of 122 to 123 °C. In turn, `Cc1ccc(NC(=O)c2cccc(C(F)(F)F)c2)cc1NC(=O)N(C)c1cc(Nc2ccc(N3CCN(C)CC3)cc2)ncn1` came in with a melting point of 190 to 191 °C. `COC(=O)C1=C(CF)NC(C)=C(C(=O)OC(C)C)C1c1c(F)cccc1C(F)(F)F` (stereo not drawn) registered a melting point of 82 to 84 °C. Turning to `CCCCCC(=O)OC(C)c1ccc(-c2ccc(C(=O)O)cc2)cc1` (single isomer, unassigned; (+)), the melting point fell in the range of 133 to 135 °C. `C=C(C)C(=O)OCCCOc1ccc(-c2cc(OC(=O)C(=C)C)cc(-c3ccc(OCCOC(=O)C(=C)C)cc3)c2)cc1F` yielded a melting point of 70 °C. As to `O=C(NC1N=C(c2ccccc2F)c2ccccc2NC1=O)c1ccc(C(F)(F)F)cc1` (racemic), the melting point was in the range of 209 to 211 °C. Take `CN1CCC[C@H]1Cc1cc2cccnc2[nH]1`: the melting point is 130 to 131 °C. In the case of `CC(C(N)=NO)N(CCN(C(C)C(N)=NO)C(C)C(N)=NO)C(C)C(N)=NO` (stereo not drawn), the melting point was in the range of 191 to 192 °C. To `Cc1c(N)cc(C(C)(C)C)cc1N` belongs 97.3 °C; to `COc1ccc(Nc2cc(-c3ccccc3)nc3ccccc23)cc1Cl`, 272 to 274 °C; to `NC(=O)c1cc(OCCNCC(O)COc2ccc(CCOCC3CC3)cc2)ccc1O` (stereo not drawn), 149 to 150 °C. On to `CNC1=Nc2ccc(Br)cc2C(c2ccccc2)=NC1`, for which the melting point was 234 to 235 °C. In turn, `O=C(O)C(O)c1ccc(-c2ccc(Cl)cc2)s1` (stereo not drawn) had a melting point of 158 to 160 °C. Then `O=C1NCc2ccccc2N1C1CCN(Cc2ccccc2)CC1`, with 120 °C; and `O=C(C(c1ccccc1)n1cnc2[nH]ncc2c1=S)N1CCC(C2C=C(O)C=CN2)CC1` (stereo not drawn), with 138 to 142 °C. The compound `COc1ccc(-c2ccc(C=O)c3ccoc23)cc1` yielded a melting point of 143 to 144 °C. For the compound `CC(=Cc1ccc(C(C)C)cc1)c1ccc2c(c1)C(C)(C)CCC2(C)C`, the melting point was 86 to 87 °C.

In turn, `O=C(OCc1ccccc1)c1ccc(CCCOCCCCCCNCC(O)c2ccc(O)c(CO)c2)cc1` (stereo not drawn) returned a melting point of 51 to 52 °C. As for `CCCCCCc1cc2c(s1)-n1c(C)nnc1CN=C2c1cc(C)ccc1C`, the melting point lay in the range of 81 to 84 °C. `CCCCCCCCCCCCCCOc1ccc(O)cc1` registered a melting point of 81 to 82 °C. Take `Cc1cc(-n2ccc(=O)[nH]c2=O)cc(Cl)c1Sc1ccc(Cl)cc1`: the melting point fell in the range of 150 to 160 °C. As for `CCCOc1ccc(CCC(=O)N2CCOCC2)cc1-c1nc2c(c(C)nn2CCC)c(=O)[nH]1`, the melting point was 132 to 133 °C. Then `O=Cc1nn(-c2ccc(Br)cc2)c2c1CCCC2`, with 120 to 121 °C; and `CC1(COC(=O)c2ccccc2)COC(CBr)(c2ccc(Cl)cc2Cl)OC1` (stereo not drawn), with 139 to 142 °C. In the case of `CC1(C)C2CCC3(C2)C1c1ncncc1CC3(C)C` (stereo not drawn), the melting point lay in the range of 44 to 45 °C.

Consider `COc1cc(OCC(=O)N[C@@H]2CCN(Cc3ccccc3)C2)ccc1C=O`, for which the melting point lay within 98 to 101 °C. For `N#Cc1ncccc1C(=O)OCC(Cl)(Cl)Cl`, the melting point came to 103 °C.

Compound `CC(Oc1ccc2nc(NC(=O)NCCC3CCN(C(=O)OC(C)(C)C)CC3)sc2c1)c1c(Cl)ccc(F)c1Cl` (stereo not drawn) came in with a melting point of 95 to 105 °C.

The compound `CC(C)n1nc(C#Cc2cccc(Cl)c2)ccc1=O` came in with a melting point of 94 to 95 °C. In the case of `CN(C)C=NS(=O)(=O)c1cc(C(=O)c2cc3c(c(Cl)c2Cl)OC(CO)C3)ccc1Cl` (stereo not drawn), the melting point was in the range of 180 to 182 °C. Take `CN(Cc1cc(C(F)(F)F)cc(C(F)(F)F)c1)C(=O)c1nc(Cl)c2ccccc2c1-c1ccccc1`: the melting point lay within 176 to 177 °C. The compound `CN1CC(CO)Cc2ccc(NC(=O)/C=C/c3ccc(C(F)(F)F)cc3)cc21` (stereo not drawn) displayed a melting point of 167 to 169 °C.

As to `CC(C)NC(=O)c1c(OS(C)(=O)=O)cccc1C(=O)O`, the melting point is 56 to 59 °C.

For `Nc1nc(Cc2ccc(Br)cc2)cc(C2CCN(C(=O)c3ccc4c(c3)OCO4)CC2)n1`, the melting point is 162 °C. On to `Cc1cccc(C(O)CNC(=C[N+](=O)[O-])NCCSCc2cc(C)c(CN(C)C)s2)c1` (stereo not drawn), for which the melting point lay in the range of 88 to 89 °C. With `CCCCOc1ccccc1C1=NC(=O)C2=NC=NC2=N1`, the melting point was in the range of 247 to 248 °C. Compound `O=C(CCCCN1CCOCC1)NNC(=O)N1Cc2ccccc2Oc2ccc(Cl)cc21` registered a melting point of 107 to 114 °C. For the compound `CCCCOCCOc1ccc(-c2ccc3c(c2)C=C(C(=O)Nc2ccc(CC(=O)c4nccn4CCC)cc2)CCN3CC(C)C)cc1`, the melting point fell in the range of 136 to 138 °C. `CC(C)C(=NO)c1ccc(Cl)cc1` had a melting point of 91 to 117 °C. `CC1=CC(C)(C)N2CCCc3c(O)ccc1c32` gave a melting point of 125 to 126 °C. For the compound `CC[C@H]1COC(=O)N1c1nc(-c2ccc(Br)cc2)cs1`, the melting point lay within 138 to 140 °C.

In turn, `CC(=O)Oc1cc(OC(C)=O)cc(OC(C)=O)c1` displayed a melting point of 105 to 106 °C.

The compound `COC(=O)c1cccc(OCc2ccc(Cl)c(Cl)c2)c1` returned a melting point of 87 to 88 °C. To `COC(=O)CCCC(=O)c1ccc(O)c(O)c1` belongs 104 to 106 °C; to `CCCCCCCCCCCCCCCCCC(=O)N1CC2(CCCCC2)NC2(CCCCC2)C1`, 56 to 59 °C; to `c1cc(CCC(Cn2ccnc2)Sc2ccc(N3CCCC3)cc2)ccn1` (stereo not drawn), 148 to 149 °C. The compound `CC(C)NC(=O)c1ccc2[nH]cc(CCNC(=O)OCc3ccccc3)c2c1` displayed a melting point of 136 to 137 °C. `CCNC(=O)C(=O)[C@H](Cc1ccccc1)NC(=O)[C@H](CC(C)C)NC(=O)OCCOC` returned a melting point of 138 °C.

For the compound `CN(C(=O)C1CCCCC1)c1ccccc1C(c1ccc(O)cc1)c1ccc(O)cc1`, the melting point lay within 250 to 252 °C. `CCOc1nc2ccccc2nc1NC(=O)N1CCN(C(c2ccccc2)c2ccccc2)CC1` showed a melting point of 156 to 158 °C. With `CC1CCCCN1c1ccc([N+](=O)[O-])cc1C(=O)c1ccc(Cl)cc1` (stereo not drawn), the melting point is 142 °C.

As to `CCCCCCCCCCCCCCCCCCC1CNCCNCCNCCNCCN1` (stereo not drawn), the melting point lay within 99 to 100 °C. Regarding `Nc1sc(CC(O)CO)cc1C(=O)c1ccccc1Cl` (stereo not drawn), the melting point was 136 to 137 °C. As to `COC(=O)Nc1ccc(OCc2nc3ccccc3s2)cc1`, the melting point lay within 142 to 144 °C. `O=Cc1cc(Br)c(O)c(OCc2ccccc2)c1` came in with a melting point of 160 to 162 °C.

For `CCCNC(=O)C1(CCCc2ccccc2N2Cc3ccccc3C2=O)c2ccccc2-c2ccccc21`, the melting point was in the range of 122 to 125 °C. Turning to `CN1CCN(c2cc3c(cc2F)c(=O)n(O)c(=O)n3-c2ccccc2F)CC1`, the melting point lay in the range of 160 to 162 °C. The compound `Cc1ccc(-c2nc(Oc3ccccc3)nc(-c3ccc(C)cc3C)n2)c(C)c1` registered a melting point of 96 to 98 °C. Then `Cc1ccc(S(=O)(=O)N2CCCC2C(=O)NC(Cc2ccc(OCC(=O)OCc3ccccc3)cc2)C(=O)O)cc1` (stereo not drawn), with 79 to 81 °C. For `CN1C(=O)CC[C@]2(C)c3ccc(-c4cc5ccccc5c5ccccc45)cc3CC[C@@H]12`, the melting point lay in the range of 218 to 220 °C. On to `O=C1c2cccc3c(N4CCCC4)c(F)cc(c23)C(=O)N1O`, for which the melting point lay in the range of 224 to 226 °C.

As to `CC(=O)NC1(Cc2ccccc2)CCN(Cc2ccccc2)CC1`, the melting point amounted to 134 °C. To `Cc1ccc(Oc2ccc(C#CC(C)N(O)C(N)=O)o2)cn1` (stereo not drawn) belongs 149 °C; to `CC1(C)CC1C(=O)NC(=CCCC(=O)O)C(=O)O` (stereo not drawn), 163 to 165 °C. To `CC(C)OC(=O)CCc1ccc(-n2ccn(-c3ccc(C(=N)N)cc3)c2=O)cc1` belongs over 250 °C; to `CC(C)(/C=C/I)C(=O)Nc1ccc(Cl)cc1`, 145 to 146 °C; to `CC1Nc2cnccc2N(C)n2cccc21` (stereo not drawn), 157 to 160 °C. Take `CC(C)(n1cncn1)C(O)(Cc1nc[nH]n1)c1ccc(C(F)(F)F)cc1F` (stereo not drawn): the melting point was 174 to 175 °C.

The values are drawn from a melting point compilation (Tetko et al.; mined from patent text by program, amines drawn as free bases though some values may be those of a salt).
